Source: patent publication US8841312B2, “Fused pyridine, pyrimidine and triazine compounds as cell cycle inhibitors” (Amgen Inc., priority 2007, dated 2014)
pIC50: −log10 of the molar value.

These compounds were tested against Cdk4/CyclinD1 (Homo sapiens (Human), UniProt P11802) (assay: Cdk4 kinase inhibition assay with recombinant Cdk4/CyclinD1, Rb substrate, [33P]-ATP filter plate). Conditions: 25 μM ATP, read-out: Cdk 4 IC50.
Assay type: biochemical
Procedure, shortened: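 Recombinant Cdk4/CyclinD1 or Cdk6/CyclinD3 phosphorylated Rb protein with [33P]-ATP for 1 h at room temperature. Protein was TCA-precipitated on filter plates and bound radioactivity counted. IC50 by nonlinear regression.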

Chain of Cdk4/CyclinD1 (P11802 whole entry): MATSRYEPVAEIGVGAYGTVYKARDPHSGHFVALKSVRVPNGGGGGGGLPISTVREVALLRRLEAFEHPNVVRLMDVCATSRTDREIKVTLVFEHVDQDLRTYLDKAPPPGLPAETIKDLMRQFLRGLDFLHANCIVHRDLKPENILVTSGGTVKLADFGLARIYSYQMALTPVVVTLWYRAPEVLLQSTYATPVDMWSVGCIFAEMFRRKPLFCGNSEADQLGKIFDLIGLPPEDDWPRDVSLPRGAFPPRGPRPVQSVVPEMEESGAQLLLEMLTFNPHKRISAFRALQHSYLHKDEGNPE
Chain of Cdk4/CyclinD1 (P24385 whole entry partner): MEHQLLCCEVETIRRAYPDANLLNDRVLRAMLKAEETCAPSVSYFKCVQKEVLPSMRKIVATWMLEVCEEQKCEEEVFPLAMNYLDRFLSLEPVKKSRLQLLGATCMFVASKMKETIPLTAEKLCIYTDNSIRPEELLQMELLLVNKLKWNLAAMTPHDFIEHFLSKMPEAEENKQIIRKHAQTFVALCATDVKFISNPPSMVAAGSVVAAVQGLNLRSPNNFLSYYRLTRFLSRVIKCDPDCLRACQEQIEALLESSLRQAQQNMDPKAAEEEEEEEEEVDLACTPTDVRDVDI

With c1cc2c3cnc(Nc4ccc(N5CCC(N6CCCC6)CC5)cn4)nc3n(C3CCCC3)c2nn1 [Example 201, 9-cyclopentyl-N-(5-(4-(1-pyrrolidinyl)-1-piperidinyl)-2-pyridinyl)-9H-pyrimido[5′,4′:4,5]pyrrolo[2,3-c]pyridazin-7-amine] as the compound, how does the pIC50 read?
The pIC50 was 7.59.

CNC1CCN(c2ccc(Nc3ncc4c5ccncc5n([C@@H]5CCOC5)c4n3)nn2)CC1 [Example 428] was tested. Which pIC50 did it give?
Its pIC50 is 7.23.

With NC1CCN(c2ccc(Nc3ncc4c5cc[nH]c(=O)c5n(C5CCCC5)c4n3)nn2)CC1 [Example 126] as the compound, how does the pIC50 read?
Its pIC50 is 8.70.

How did the pIC50 turn out when CNC1CCN(c2ccc(Nc3ncc4c5ccncc5n([C@@H](C)CO)c4n3)nc2)CC1 [Example 367] was run?
The pIC50 was 6.46.

How did the pIC50 turn out when c1ccc(-n2c3cnccc3c3cnc(Nc4ccc(N5CCNCC5)cc4)nc32)cc1 [Example 17, (9-Phenyl-9H-pyrido[4′,3′:4,5]pyrrolo[2,3-d]pyrimidin-2-yl)-(4-piperazin-1-yl-phenyl)amine] was run?
Its pIC50 is 9.49.

CN(C)C1CCN(c2ccc(Nc3ncc4c5ccncc5n(C5CCS(=O)(=O)CC5)c4n3)nc2)CC1 [Example 280, N-(5-(4-(dimethylamino)-1-piperidinyl)-2-pyridinyl)-9-(1,1-dioxidotetrahydro-2H-thiopyran-4-yl)-9H-pyrido[4′,3′:4,5]pyrrolo[2,3-d]pyrimidin-2-amine] was tested. Which pIC50 did it give?
Its pIC50 is 7.23.

c1cc2c3cnc(Nc4ccc(N5CCNC6(CCCC6)C5)nn4)nc3n(C3CCCC3)c2cn1 [Example 247, 9-cyclopentyl-N-(6-(6,9-diazaspiro[4.5]dec-9-yl)-3-pyridazinyl)-9H-pyrido[4′,3′:4,5]pyrrolo[2,3-d]pyrimidin-2-amine] was tested. Which pIC50 did it give?
Its pIC50 is 8.47.

How did the pIC50 turn out when CN(CCO)c1ccc(Nc2ncc3c4ccncc4n(C4CCCC4)c3n2)nn1 [Example 291] was run?
Its pIC50 is 8.41.

CN(C)C1CCN(c2ccc(Nc3ncc4c5ccncc5n([C@H]5CCC[C@@H]5O)c4n3)nc2)CC1 [Example 399] was tested. Which pIC50 did it give?
Its pIC50 is 7.24.

How did the pIC50 turn out when CN(C)C1CCN(c2ccc(Nc3ncc4c5ccnc(Cl)c5n(C5CCCC5)c4n3)nn2)CC1 [Example 154, 8-Chloro-9-cyclopentyl-N-(6-(4-(dimethylamino)-1-piperidinyl)-3-pyridazinyl)-9H-pyrido[4′,3′:4,5]pyrrolo[2,3-d]pyrimidin-2-amine] was run?
Its pIC50 is 7.70.

With CCC1CN(c2ccc(Nc3ncc4c5ccncc5n(C5CCCC5)c4n3)nn2)CCN1 (centres unmarked) [Example 121] as the compound, how does the pIC50 read?
Its pIC50 is 8.37.

CN(C)C1CCN(c2ccc(Nc3ncc4c5cc[nH]c(=O)c5n(C5CCCC5)c4n3)nn2)CC1 [Example 127] was tested. Which pIC50 did it give?
The pIC50 was 8.28.

c1cc2c3cnc(Nc4ccc(NCC5CCCCN5)nn4)nc3n(C3CCCC3)c2cn1 (centres unmarked) [Example 99] was tested. Which pIC50 did it give?
Its pIC50 is 8.31.

With CC1CN(c2ccc(Nc3ncc4c5cc[nH]c(=O)c5n(C5CCCC5)c4n3)nc2)CC(C)N1 (centres unmarked) [Example 124] as the compound, how does the pIC50 read?
Its pIC50 is 7.77.

How did the pIC50 turn out when COC1CCN(c2cnc(Nc3ncc4c5ccncc5n(C5CCCC5)c4n3)cn2)C1 (centres unmarked) [Example 87] was run?
Its pIC50 is 7.37.

CC1CN(c2cnc(Nc3ncc4c5ccncc5n(C5CCCC5)c4n3)cn2)CC(C)N1 (centres unmarked) [Example 79] was tested. Which pIC50 did it give?
Its pIC50 is 7.92.

How did the pIC50 turn out when c1cc2c3cnc(Nc4ccc(N5CCNCC5)nn4)nc3n([C@@H]3CCOC3)c2cn1 [Example 427] was run?
The pIC50 was 7.62.

How did the pIC50 turn out when CC1(C)CN(c2ccc(Nc3ncc4c5ccncc5n([C@H]5CCC[C@@H]5O)c4n3)nc2)CCN1 [Example 402] was run?
The pIC50 was 6.76.

CN(C)C1CCN(c2ccc(Nc3ncc4c5ccncc5n(C5CCSCC5)c4n3)nn2)CC1 [Example 275, N-(6-(4-(dimethylamino)-1-piperidinyl)-3-pyridazinyl)-9-(tetrahydro-2H-thiopyran-4-yl)-9H-pyrido[4′,3′:4,5]pyrrolo[2,3-d]pyrimidin-2-amine] was tested. Which pIC50 did it give?
The pIC50 was 7.77.

CN(C)C1CCN(c2ccc(Nc3ncc4c5ccncc5n(C5CCSCC5)c4n3)nc2)CC1 [Example 276, N-(5-(4-(dimethylamino)-1-piperidinyl)-2-pyridinyl)-9-(tetrahydro-2H-thiopyran-4-yl)-9H-pyrido[4′,3′:4,5]pyrrolo[2,3-d]pyrimidin-2-amine] was tested. Which pIC50 did it give?
The pIC50 was 7.02.

With Cc1nc(Nc2ncc3c4ccnc(F)c4n(C4CCCC4)c3n2)ccc1N1CCNCC1 [Example 171, 9-Cyclopentyl-8-fluoro-N-(6-methyl-5-(1-piperazinyl)-2-pyridinyl)-9H-pyrido[4′,3′:4,5]pyrrolo[2,3-d]pyrimidin-2-amine] as the compound, how does the pIC50 read?
The pIC50 was 7.72.

How did the pIC50 turn out when CN(C)C1CCN(c2ccc(Nc3ncc4c5ccncc5n([C@@H]5CCOC5)c4n3)nn2)CC1 [Example 391] was run?
The pIC50 was 6.74.

With C[C@H]1CN(c2ccc(Nc3ncc4c5ccnc(F)c5n(C5CCCC5)c4n3)nc2)CCN1 [Example 179, 9-cyclopentyl-8-fluoro-N-(5-((3S)-3-methyl-1-piperazinyl)-2-pyridinyl)-9H-pyrido-[4′,3′:4,5]pyrrolo[2,3-d]pyrimidin-2-amine] as the compound, how does the pIC50 read?
Its pIC50 is 8.47.

CNC1CCN(c2ccc(Nc3ncc4c5ccncc5n(C[C@H](C)O)c4n3)nn2)CC1 [Example 411] was tested. Which pIC50 did it give?
The pIC50 was 6.37.

How did the pIC50 turn out when CC1(C)CCC(n2c3cnccc3c3cnc(Nc4ccc(N5CCC(N6CCCC6)CC5)cn4)nc32)CC1 [Example 206, 9-(4,4-dimethylcyclohexyl)-N-(5-(4-(1-pyrrolidinyl)-1-piperidinyl)-2-pyridinyl)-9H-pyrido[4′,3′:4,5]pyrrolo[2,3-d]pyrimidin-2-amine] was run?
The pIC50 was 7.85.

How did the pIC50 turn out when CC[C@H](C)n1c2cnccc2c2cnc(Nc3ccc(N4CC[C@@H](O)C4)cn3)nc21 [Example 336] was run?
Its pIC50 is 8.70.

O=C1COC2(CCN(c3ccc(Nc4ncc5c6ccncc6n(C6CCCC6)c5n4)nn3)CC2)CN1 [Example 250, 9-(6-((9-cyclopentyl-9H-pyrido[4′,3′:4,5]pyrrolo[2,3-d]pyrimidin-2-yl)amino)-3-pyridazinyl)-1-oxa-4,9-diazaspiro[5.5]undecan-3-one] was tested. Which pIC50 did it give?
Its pIC50 is 7.80.

With CNC1CCN(c2ccc(Nc3ncc4c5ccncc5n([C@H]5CCC[C@@H]5O)c4n3)nc2)CC1 [Example 400] as the compound, how does the pIC50 read?
The pIC50 was 6.52.

O[C@@H]1CCN(c2ccc(Nc3ncc4c5ccncc5n([C@H]5CCOC5)c4n3)nc2)C1 [Example 396] was tested. Which pIC50 did it give?
Its pIC50 is 6.62.

CN(C)C1CCN(c2ccc(Nc3ncc4c5ccncc5n(C5CCCC5)c4n3)nc2)CC1 [Example 12] was tested. Which pIC50 did it give?
The pIC50 was 8.02.

With COCC(C)(C)n1c2cnccc2c2cnc(Nc3ccc(N4CCC(N(C)C)CC4)cn3)nc21 [Example 273, N-(5-(4-(dimethylamino)-1-piperidinyl)-2-pyridinyl)-9-(2-methoxy-1,1-dimethylethyl)-9H-pyrido[4′,3′:4,5]pyrrolo[2,3-d]pyrimidin-2-amine] as the compound, how does the pIC50 read?
The pIC50 was 7.72.

With CC1(C)CN(c2ccc(Nc3ncc4c5ccncc5n([C@H]5CCC[C@H]5O)c4n3)nn2)CCN1 [Example 365] as the compound, how does the pIC50 read?
Its pIC50 is 6.80.

COC1CCN(c2ccc(Nc3ncc4c5ccncc5n(C5CCCC5)c4n3)nc2)C1 (centres unmarked) [Example 73] was tested. Which pIC50 did it give?
The pIC50 was 7.77.

COC(=O)CC1CCN(c2ccc(Nc3ncc4c5ccnc(F)c5n(C5CCCC5)c4n3)nc2)CC1 [Example 174, Methyl (1-(6-((9-cyclopentyl-8-fluoro-9H-pyrido[4′,3′:4,5]pyrrolo[2,3-d]pyrimidin-2-yl)amino)-3-pyridinyl)-4-piperidinyl)acetate] was tested. Which pIC50 did it give?
The pIC50 was 7.48.

NC1CCN(c2cnc(Nc3ncc4c5ccncc5n(C5CCCC5)c4n3)cn2)CC1 [Example 82] was tested. Which pIC50 did it give?
The pIC50 was 8.59.

How did the pIC50 turn out when O=C(Cc1ccc(Nc2ncc3c4ccncc4n(C4CCCC4)c3n2)nc1)N1CCNCC1 [Example 245, 9-cyclopentyl-N-(5-(2-oxo-2-(1-piperazinyl)ethyl)-2-pyridinyl)-9H-pyrido[4′,3′:4,5]pyrrolo[2,3-d]pyrimidin-2-amine] was run?
Its pIC50 is 8.13.

C[C@H](O)Cn1c2cnccc2c2cnc(Nc3ccc(N4CC[C@@H](O)C4)nn3)nc21 [Example 414] was tested. Which pIC50 did it give?
Its pIC50 is 8.59.

C[C@@H]1CN(c2ccc(Nc3ncc4c5ccnc(F)c5n(C5CCCC5)c4n3)nc2)CCN1 [Example 178, 9-Cyclopentyl-8-fluoro-N-(5-((3R)-3-methyl-1-piperazinyl)-2-pyridinyl)-9H-pyrido[4′,3′:4,5]pyrrolo[2,3-d]pyrimidin-2-amine] was tested. Which pIC50 did it give?
Its pIC50 is 8.30.

How did the pIC50 turn out when CC1CCN(c2ccc(Nc3ncc4c5ccncc5n(C5CCCC5)c4n3)nn2)C1 (centres unmarked) [Example 120] was run?
The pIC50 was 7.72.

OC[C@H]1CN(c2ccc(Nc3ncc4c5ccnc(F)c5n(C5CCCC5)c4n3)nc2)CCN1 [Example 196, ((2R)-4-(6-((9-Cyclopentyl-8-fluoro-9H-pyrido[4′,3′:4,5]pyrrolo[2,3-d]pyrimidin-2-yl)amino)-3-pyridinyl)-2-piperazinyl)methanol] was tested. Which pIC50 did it give?
The pIC50 was 8.62.

How did the pIC50 turn out when CC[C@H](C)n1c2cnccc2c2cnc(Nc3ccc(N4CCNC(C)(C)C4)nn3)nc21 [Example 332] was run?
Its pIC50 is 7.80.

How did the pIC50 turn out when C[C@@H]1CNCCN1c1ccc(Nc2ncc3c4ccnc(F)c4n(C4CCCC4)c3n2)nc1 [Example 180, 9-Cyclopentyl-8-fluoro-N-(5-((2R)-2-methyl-1-piperazinyl)-2-pyridinyl)-9H-pyrido[4′,3′:4,5]pyrrolo[2,3-d]pyrimidin-2-amine] was run?
The pIC50 was 8.70.

O=C1CN(c2ccc(Nc3ncc4c5ccncc5n(C5CCCC5)c4n3)nn2)CCN1 [Example 115] was tested. Which pIC50 did it give?
The pIC50 was 8.64.

CC[C@H](C)n1c2cnccc2c2cnc(Nc3ccc(N4CCC(N(C)C)CC4)nn3)nc21 [Example 327] was tested. Which pIC50 did it give?
Its pIC50 is 6.20.

With c1cc2c3cnc(Nc4ccc(N5CCNC6(CCC6)C5)nn4)nc3n(C3CCCC3)c2cn1 [Example 246, 9-cyclopentyl-N-(6-(5,8-diazaspiro[3.5]non-8-yl)-3-pyridazinyl)-9H-pyrido[4′,3′:4,5]pyrrolo[2,3-d]pyrimidin-2-amine] as the compound, how does the pIC50 read?
The pIC50 was 7.15.

CC1(C)CN(c2ccc(Nc3ncc4c5ccncc5n([C@@H]5CCNC5)c4n3)nc2)CCN1 [Example 338] was tested. Which pIC50 did it give?
Its pIC50 is 6.52.

c1cc2c3cnc(Nc4cnc(N5CCOCC5)cn4)nc3n(C3CCCC3)c2cn1 [Example 84] was tested. Which pIC50 did it give?
The pIC50 was 7.66.

How did the pIC50 turn out when CC1(C)CN(c2ccc(Nc3ncc4c5ccncc5n([C@@H]5CCOC5)c4n3)nc2)CCN1 [Example 432] was run?
The pIC50 was 7.77.

With CNC1CCN(c2ccc(Nc3ncc4c5ccncc5n(C[C@@H](C)O)c4n3)nn2)CC1 [Example 417] as the compound, how does the pIC50 read?
Its pIC50 is 6.82.

How did the pIC50 turn out when O=c1[nH]ccc2c3cnc(Nc4ccc(N5CCNCC5)nn4)nc3n(C3CCCC3)c12 [Example 122, 9-Cyclopentyl-2-((6-(1-piperazinyl)-3-pyridazinyl)amino)-7,9-dihydro-8H-pyrido[4′,3′:4,5]pyrrolo[2,3-d]pyrimidin-8-one] was run?
Its pIC50 is 8.06.
